{
  "source": "patent US11919854B2",
  "about": "“P2RX7 modulators in therapy” (Centre national de la recherche scientifique, priority 2018, dated 2024)",
  "key": {"B16F10 cells": {"test_system": "B16F10 cells", "test": "B16F10 cell death (XTT absorbance)", "assay_type": "cell-based, mouse", "details": "3 h treatment with BzATP and HEI3090", "method": "A. Large pore opening. Dot plot of representative experiment. Numbers highlighted the percentage of positive cells. […] B. representative curve of XTT absorbance over the time. […] Mean±SEM are shown. ***, p<0.001; ****, p<0.0001 Mann-Whitney test.\nOf interest, potentiation of large pore opening correlated with increased-B16F10 cell death, as illustrated in FIG. 9. Cells treated during 1 h with BzATP and HEI3090 incorporated 3-fold more Topro3 than cells treated with BzATP only (FIG. 9A). Longer incubation increased cell death, since it was observed up to 80% of dead cells after 3 h treatment (FIG. 9B)."}, "[1]": {"test_system": "LLC (Lewis Lung Cancer) cells", "test": "Syngeneic tumor mice model, LLC subcutaneous", "assay_type": "in vivo, C57BL6 mice", "method": "5×10^5 LLC or 5×10^5 B16F10 cells were injected sub cutaneously in the right flank of C57BL6 mice. Mice received HEI3090 (ip, 2.5 mg/kg in 10% DMSO/PBS) daily or placebo (10% DMSO/PBS). A,C. incidence of tumor appearance B,D. Tumor size (mm2) and tumor weight at sacrifice day (J12). E. HEI-treated tumors are more immunogenic. Expression of CMH1 (H2K^b/D^b) and PD-L1 by LLC (black) and B16F10 (grey) tumors is shown in dot plots. Numbers highlighted the percentage of tumor cells positive for H2K^b/D^b and PD-L1. […] F. CD-45 positive infiltrates is increased in LLC and B16F10 tumors. *, p<0.05; **, p<0.01; ***, p<0.001 Mann-Whitney test.\n5×10^5 LLC or 5×10^5 B16F10 cells were injected sub cutaneously in the right flank of C57BL6 mice. Mice received HEI3090 (ip, 2.5 mg/kg in 10% DMSO/PBS) daily or placebo (10% DMSO/PBS). A. The quantity of immunosuppressive cells is reduced. Dot plot of representative experiment. Numbers highlighted the percentage of M-MDSC and PMN-MDSC. […] B. The quantity of effector T cells ([…], NK, CD4+) is increased.\n5×10^5 LLC cells were injected sub cutaneously in the right flank of C57BL6 mice. Mice received HEI3090 (ip, 2.5 mg/kg in 10% DMSO/PBS) alone or in presence of anti CD4 antibody daily or placebo (10% DMSO/PBS). A. Tumor growth from the 3 groups was followed daily. B. tumor weight at sacrifice day (J12). *, p<0.05; ****, p<0.0001 (Mann-Whitney test).\na, b. Phenotypic flow cytometry analyses of tumor infiltrating cells. LLC tumors were collected at day 12. Proportion of PMN-MDSC among CD45+ within LLC tumors from mice treated with vehicle or HEI3090 (a). Ratio of NK, CD4+ or CD8+ T cells on PMN-MDSC (b).\nc, d. 5.105 LLC were injected s.c. into the flank of C57BL6/J mice. Then mice were treated i.p. with vehicle (PBS, 10% DMSO) or with HEI3090 (1.5 mg/kg in PBS, 10% DMSO) or with HEI3090 and depleting antibody against NK1.1, CD4+ or CD8+ T cells. Antibodies were administered i.p every 3 days (200 μg/injection). Spaghetti plots and tumor weight at day 12 (d). Each curve represents one mouse.\ne-g Functional flow cytometry analyses of tumor infiltrating immune cells or splenocytes. Tumors were stimulated with PMA/ionomycine and production of IFN-γ and IL-10 were simultaneously analyzed in CD45+, NK, CD4+ or CD8+ T cells. Graphs shown proportion of IFN-γ producing cells into CD45+ cells or geometric mean of fluorescence (e). Representative dot plots of IFN-γ and IL-10 staining into TILs (f). Ratios of IFN-γ on IL-10 positive cells on each TIL. Degranulation assay of splenocytes from LLC tumor bearing mice treated with vehicle or HEI3090 (g) Splenocytes were re-stimulated with LLC in vitro and CD107a positive cells in NK, CD4+ and CD8+ T cells were represented.\na. Flow cytometry analyses of P2RX7 expression among conventional dendritic cells CD4+ or CD8+ within LLC tumors.\nb. Protein levels of IL-1p and IL-18 in serum of LLC tumor bearing mice treated with vehicle or HEI3090, determined by ELISA.\nc. 5.105 LLC were injected s.c. into the flank of C57BL6/J mice. Then mice were treated i.p. with vehicle (PBS, 10% DMSO) or with HEI3090 (1.5 mg/kg in PBS, 10% DMSO) or with HEI3090 and neutralizing antibody against IL-1p or IL-18 from day 1 to day 12. Antibodies were administered i.p every 3 days (200 μg/injection).\ne. Effect of HEI3090 on tumor growth in IL-18 deficient mice (IL-18^−/−). 5.105 LLC were injected s.c. into the flank of IL-18^−/− mice. Mice were treated i.p. with vehicle (PBS, 10% DMSO) or with HEI3090 (1.5 mg/kg in PBS, 10% DMSO) from day 1 to day 12.\n4.2. By killing tumoral cells, HEI3090 may represent a new anti-tumor treatment. To test this hypothesis, immunocompetent C57B16J mice were subcutaneously injected with 5×10^5 B16F10 or 5×10^5 LLC (Lewis Lung Cancer) cells and treated daily with HEI3090 (ip, 2.5 mg/kg in 10% DMSO/PBS) or placebo (10% DMSO/PBS). […]"}},
  "data": [
    {"smiles": "O=C(NCc1ccc(Cl)cc1Cl)[C@@H]1CCC(=O)N1C(=O)Nc1ccc(Cl)nc1", "note": "[HEI3090, (S)—N^1-(6-Chloropyridin-3-yl)-N^2-(2,4-dichlorobenzyl)-5-oxopyrrolidine-1,2-dicarboxamide]", "values": [
      {"measurement": "dead cells", "setting": "B16F10 cells", "value": "up to 80%"},
      {"measurement": "IL18 in plasma and within the tumor", "setting": "[1]; ELISA in serum, IHC in tumors", "value": "overexpressed"},
      {"measurement": "immune cells required for anti-tumor effect", "setting": "[1]; HEI3090 1.5 mg/kg ip with depleting antibody against NK1.1, CD4+ or CD8+ T cells", "value": "both NK and CD4+ cells are required"},
      {"measurement": "IFN-γ expression of NK and CD4+ cells in tumor", "setting": "[1]; HEI3090 1.5 mg/kg ip, flow cytometry", "value": "expressed more IFN-γ"},
      {"measurement": "immunosuppressive cells (PMN-MDSC) in tumor infiltrates", "setting": "[1]; HEI3090 ip 2.5 mg/kg daily", "value": "less PMN-MDSC"},
      {"measurement": "tumors weight", "setting": "[1]; HEI3090 ip 2.5 mg/kg daily (placebo 295 mg)", "value": 80, "unit": "mg"},
      {"measurement": "reduction of tumors weight", "setting": "[1]; HEI3090 ip 2.5 mg/kg daily, vs placebo", "value": 4, "unit": "folds"},
      {"measurement": "tumor size with depletion of T CD4+ lymphocytes", "setting": "[1]; HEI3090 plus anti-T CD4+ antibody", "value": "bigger than tumors from the HEI3090 group, and smaller than tumors from the placebo group"},
      {"measurement": "tumor growth without IL18", "setting": "[1]; blocking IL18 antibody and Il18−/− mice, HEI3090 1.5 mg/kg ip", "value": "did not block tumor growth anymore"},
      {"measurement": "P2RX7 expression on dendritic cells within tumors", "setting": "[1]; flow cytometry", "value": "increased P2RX7 expression on dendritic cells"}
    ]}
  ]
}
